Test results as given in the supplement of paper PMC10307832.

Assays:
Test in all cases: relative viability (nuclei count vs DMSO), 5 days (fraction); higher = more cells survive
PC-14 = tested on: PC-14
Outline: (§1)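 Cells from lung cancer lines were seeded into 1536-well plates and, one day later, dosed by pin tool. Treatments were either a single drug or a fixed dose of an anchor drug with five library-drug doses (not always all listed) in √10 steps. After 5 days, nuclei were stained in a one-step fixation (final 0.05% Triton X-100, 1% formaldehyde, 1 ug/ml Hoechst) and counted on 4× images, and relative viability is the treated-to-vehicle nuclei ratio, as the median of duplicate plates.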

NCI-H838 = tested on: NCI-H838
Outline: as §1

HCC-15 = tested on: HCC-15
Outline: as §1

NCI-H1793 = tested on: NCI-H1793
Outline: as §1

NCI-H1355 = tested on: NCI-H1355
Outline: as §1

NCI-H2342 = tested on: NCI-H2342
Outline: as §1

NCI-H2170 = tested on: NCI-H2170
Outline: as §1

NCI-H647 = tested on: NCI-H647
Outline: as §1

NCI-H358 = tested on: NCI-H358
Outline: as §1

NCI-H1734 = tested on: NCI-H1734
Outline: as §1

HOP-62 = tested on: HOP-62
Outline: as §1

NCI-H1755 = tested on: NCI-H1755
Outline: as §1

NCI-H1395 = tested on: NCI-H1395
Outline: as §1

EKVX = tested on: EKVX
Outline: as §1

NCI-H1993 = tested on: NCI-H1993
Outline: as §1

NCI-H2347 = tested on: NCI-H2347
Outline: as §1

HARA = tested on: HARA
Outline: as §1

CC1(C)CCC(c2ccc(Cl)cc2)=C(CN2CCN(c3ccc(C(=O)NS(=O)(=O)c4ccc(N[C@H](CCN5CCOCC5)CSc5ccccc5)c(S(=O)(=O)C(F)(F)F)c4)cc3)CC2)C1 [Navitoclax] + NC(=O)Nc1cc(-c2cccc(F)c2)sc1C(=O)N[C@H]1CCCNC1 [AZD7762] (partner 0.2 µM)
relative viability (PC-14; first compound 0.005 µM): 0.326 | relative viability (PC-14; first compound 0.01581 µM): 0.413 | relative viability (PC-14; first compound 0.05 µM): 0.255 | relative viability (PC-14; first compound 0.1581 µM): 0.322 | relative viability (PC-14; first compound 0.5 µM): 0.325 | relative viability (NCI-H838; first compound 0.005 µM): 0.971 | relative viability (NCI-H838; first compound 0.01581 µM): 0.869 | relative viability (NCI-H838; first compound 0.05 µM): 0.937 | relative viability (NCI-H838; first compound 0.1581 µM): 0.97 | relative viability (NCI-H838; first compound 0.5 µM): 0.957 | relative viability (HCC-15; first compound 0.005 µM): 0.868 | relative viability (HCC-15; first compound 0.01581 µM): 1.2 | relative viability (HCC-15; first compound 0.05 µM): 0.838 | relative viability (HCC-15; first compound 0.1581 µM): 1.03 | relative viability (HCC-15; first compound 0.5 µM): 1.05 | relative viability (NCI-H1793; first compound 0.005 µM): 0.488 | relative viability (NCI-H1793; first compound 0.01581 µM): 0.613 | relative viability (NCI-H1793; first compound 0.1581 µM): 0.402 | relative viability (NCI-H1793; first compound 0.5 µM): 0.246 | relative viability (NCI-H1355; first compound 0.005 µM): 0.745 | relative viability (NCI-H1355; first compound 0.01581 µM): 0.728 | relative viability (NCI-H1355; first compound 0.05 µM): 0.588 | relative viability (NCI-H1355; first compound 0.1581 µM): 0.735 | relative viability (NCI-H1355; first compound 0.5 µM): 0.668 | relative viability (NCI-H2342; first compound 0.005 µM): 0.532 | relative viability (NCI-H2342; first compound 0.01581 µM): 0.464 | relative viability (NCI-H2342; first compound 0.05 µM): 0.424 | relative viability (NCI-H2342; first compound 0.1581 µM): 0.603 | relative viability (NCI-H2342; first compound 0.5 µM): 0.571 | relative viability (NCI-H2170; first compound 0.005 µM): 0.883 | relative viability (NCI-H2170; first compound 0.01581 µM): 0.912 | relative viability (NCI-H2170; first compound 0.05 µM): 0.845 | relative viability (NCI-H2170; first compound 0.1581 µM): 0.798 | relative viability (NCI-H2170; first compound 0.5 µM): 0.623 | relative viability (NCI-H647; first compound 0.005 µM): 0.413 | relative viability (NCI-H647; first compound 0.01581 µM): 0.446 | relative viability (NCI-H647; first compound 0.05 µM): 0.492 | relative viability (NCI-H647; first compound 0.1581 µM): 0.343 | relative viability (NCI-H647; first compound 0.5 µM): 0.438 | relative viability (NCI-H358; first compound 0.005 µM): 0.566 | relative viability (NCI-H358; first compound 0.01581 µM): 0.712 | relative viability (NCI-H358; first compound 0.05 µM): 0.545 | relative viability (NCI-H358; first compound 0.1581 µM): 0.485 | relative viability (NCI-H358; first compound 0.5 µM): 0.592 | relative viability (NCI-H1734; first compound 0.005 µM): 0.533 | relative viability (NCI-H1734; first compound 0.01581 µM): 0.555 | relative viability (NCI-H1734; first compound 0.1581 µM): 0.543 | relative viability (NCI-H1734; first compound 0.5 µM): 0.506 | relative viability (HOP-62; first compound 0.005 µM): 0.721 | relative viability (HOP-62; first compound 0.01581 µM): 0.694 | relative viability (HOP-62; first compound 0.05 µM): 0.514 | relative viability (HOP-62; first compound 0.1581 µM): 0.512 | relative viability (HOP-62; first compound 0.5 µM): 0.384 | relative viability (NCI-H1755; first compound 0.005 µM): 0.426 | relative viability (NCI-H1755; first compound 0.01581 µM): 0.462 | relative viability (NCI-H1755; first compound 0.05 µM): 0.322 | relative viability (NCI-H1755; first compound 0.1581 µM): 0.439 | relative viability (NCI-H1755; first compound 0.5 µM): 0.474 | relative viability (NCI-H1395; first compound 0.005 µM): 0.368 | relative viability (NCI-H1395; first compound 0.01581 µM): 0.41 | relative viability (NCI-H1395; first compound 0.05 µM): 0.357 | relative viability (NCI-H1395; first compound 0.1581 µM): 0.385 | relative viability (NCI-H1395; first compound 0.5 µM): 0.405 | relative viability (EKVX; first compound 0.005 µM): 0.728 | relative viability (EKVX; first compound 0.01581 µM): 0.784 | relative viability (EKVX; first compound 0.05 µM): 0.769 | relative viability (EKVX; first compound 0.1581 µM): 0.729 | relative viability (EKVX; first compound 0.5 µM): 0.777 | relative viability (NCI-H1993; first compound 0.005 µM): 0.738 | relative viability (NCI-H1993; first compound 0.01581 µM): 1.05 | relative viability (NCI-H1993; first compound 0.05 µM): 0.552 | relative viability (NCI-H1993; first compound 0.1581 µM): 0.721 | relative viability (NCI-H1993; first compound 0.5 µM): 0.641 | relative viability (NCI-H2347; first compound 0.005 µM): 0.809 | relative viability (NCI-H2347; first compound 0.01581 µM): 0.594 | relative viability (NCI-H2347; first compound 0.05 µM): 0.579 | relative viability (NCI-H2347; first compound 0.1581 µM): 0.685 | relative viability (NCI-H2347; first compound 0.5 µM): 0.579 | relative viability (HARA; first compound 0.005 µM): 0.385 | relative viability (HARA; first compound 0.01581 µM): 0.444 | relative viability (HARA; first compound 0.05 µM): 0.212 | relative viability (HARA; first compound 0.1581 µM): 0.228 | relative viability (HARA; first compound 0.5 µM): 0.32
